Experimental data from a compilation of properties of binary mixtures (doi:10.1016/j.molliq.2018.02.064).

Assay: xn = mol fraction of the nth substance listed
Details: 100 kPa, x2 = 0

CCO + CCCC[n+]1ccn(C)c1.O=S(=O)([N-]S(=O)(=O)C(F)(F)F)C(F)(F)F
Details	viscosity [mPa·s]
293 K	1.19
293.3 K	1.18
293.61 K	1.18
293.91 K	1.17
294.21 K	1.17
294.52 K	1.16
294.82 K	1.16
295.12 K	1.15
295.42 K	1.15
296.03 K	1.14
296.33 K	1.13
296.64 K	1.13
297.24 K	1.12
298.45 K	1.09
298.76 K	1.09
299.06 K	1.08
299.36 K	1.08
299.67 K	1.07
299.97 K	1.07
300.27 K	1.06
300.58 K	1.06
300.88 K	1.05
301.18 K	1.05
301.79 K	1.04
302.09 K	1.03
302.39 K	1.03
303 K	1.02
303.61 K	1.01
303.91 K	1
304.52 K	0.99
304.82 K	0.99
305.12 K	0.98
305.42 K	0.98
305.73 K	0.97
306.33 K	0.96
306.64 K	0.96
306.94 K	0.95
307.24 K	0.95
307.55 K	0.94
307.85 K	0.94
308.15 K	0.93
308.45 K	0.93
308.76 K	0.92
309.06 K	0.92
309.36 K	0.91
309.97 K	0.9
310.27 K	0.9
310.88 K	0.89
311.18 K	0.88
311.48 K	0.88
311.79 K	0.87
312.09 K	0.87
312.39 K	0.86
313.91 K	0.84
314.21 K	0.84
314.52 K	0.83
314.82 K	0.83
315.12 K	0.82
315.42 K	0.82
315.73 K	0.81
316.03 K	0.81
316.64 K	0.8
316.94 K	0.8
317.24 K	0.79
317.55 K	0.79
317.85 K	0.78
318.15 K	0.78
318.76 K	0.77
319.06 K	0.77
319.97 K	0.75
320.27 K	0.75
320.58 K	0.74
321.18 K	0.73
321.79 K	0.73
322.09 K	0.72
322.39 K	0.72
322.7 K	0.71
323 K	0.71
